Results as given in patent US12478586B2, “Small molecular drug-loaded polymer vesicle, preparation method therefor and use thereof” (SOOCHOW UNIVERSITY, priority 2020, dated 2025).
Structures can show the parent of a compound that is named as a salt.

Legend:
LP-1 cells = assay: AnnexinV-FITC/PI apoptosis by flow cytometry; format: cell-based; details: VCR 0.5 ng/mL, 48 h
Method: LP-1 cells were first spread in 6-well plates at a density of 2×10^5 cells/well and incubated in the incubator for 24 h. After 24 h, 200 μL of Dar-Ps-VCR, Ps-VCR, and free VCR were added (the in-well concentration of VCR was 0.5 ng/mL), and the cells with only PBS were used as a control. After incubation in the incubator for 48 h, LP-1 cells were collected by centrifugation (800 rpm, 5 min) and washed twice with ice PBS, and finally 200 μL of Binding buffer was added to each sample to resuspend the cells (the cell density was approximately 10^6 cells/mL). After blowing uniformly, 100 μL was taken into the flow tube and 5 μL of AnnexinV-FITC and 10 μL of PI solution were added sequentially, and the cells were stained at room temperature and protected from light for 15 min, then 400 μL of PBS was added and mixed uniformly, and measured by flow cytometry within 1 h. The cells were then stained with PBS for 15 min at room temperature and protected from light for 15 min. Among them, the samples in the PBS group that were treated in a 50° C. water bath for 5 min and fixed with 4% paraformaldehyde for 5 min were used as the early apoptosis group and the late apoptosis group, respectively, and stained for 15 min by adding 5 μL of AnnexinV-FITC solution and 10 μL of PI solution, respectively.

[1] = system: LP-1-Luc multiple myeloma mice; assay: Anti-tumor effect in orthotopic LP-1-Luc multiple myeloma mice; format: in vivo
Method: Mice were simultaneously weighed.
To investigate the anti-tumor effect of Dar-Ps-VCR in […] LP-1-Luc multiple myeloma mice, treatment experiments were initiated when the bioluminescence intensity reached 1.2×10^6 p/sec/cm^2/sr on day 10 post-inoculation. There were two dosing regimens that maintained the same total VCR administration: one with a VCR dose of 0.25 mg/kg, one injection given on 4 days for a total of 4 injections, denoted as Dar-Ps-VCR (0.25 mg VCR equiv./kg, Q4d); and the other with a VCR dose of 0.50 mg/kg, one injection given on 8 days for a total of 2 injections, denoted as Dar-Ps-VCR (0.50 mg VCR equiv./kg, Q8d). Based on the first dosing regimen, equal VCR doses of Ps-VCR and free VCR, equal equivalents of Dar-Ps, and PBS were used as controls. Each treatment group consisted of 10 […] mice, of which 4 were used for bioluminescence imaging and 6 were used to monitor body weight and observe survival. […] At the end of drug administration, the tumors of mice in the non-targeted Ps-VCR and free VCR groups began to recur, and Luc bioluminescence signals increased rapidly, i.e., 157- and 53-fold by day 39, respectively.

[2] = system: LP-1 multiple myeloma cells; assay: CCK-8 cytotoxicity; format: cell-based; details: LP-1 cells
Method: The in vitro anti-tumor activity of Dar-Ps-VCR against LP-1 multiple myeloma cells was determined using a CCK-8 kit, with MV4-11 cells as a control. LP-1 cells were first spread in 96-well plates (15,000/well) and placed in an incubator at 37° C. with 5% CO2 for 24 h. After that, 20 μL of Dar-Ps-VCR, Ps-VCR and free VCR containing different Dar surface densities were added to each well, and the final concentrations of VCR in the wells were 0.001, 0.01, 0.05, 0.1, 0.5, 1 and 10 ng/mL. After incubation at 37° C. for 48 h, 10 μL of CCK-8 solution was added to each well to continue the incubation for 4 h. Finally, its absorbance value at 492 nm was tested by an enzyme marker. Cell viability was calculated by the ratio of the absorbance value of the experimental group to the absorbance value of the cells incubated with the addition of PBS, and the experiment was performed in parallel for four groups (mean±SD, […]).

Compound	apoptosis (LP-1 cells) [%]	median survival ([1]; 0.25 mg VCR equiv./kg, Q4d (Dar-Ps: equal equivalents)) [days]	increase of Luc bioluminescence signal ([1]; by day 39, 0.25 mg VCR equiv./kg, Q4d) [fold]	Luc signal during the administration treatment period ([1]; days 10-22)	IC50 ([2]; Homo sapiens, 48 h, VCR concentration, read-out: LC50 (IC50)) [ng/mL]	cell survival ([2]; Dar concentration 9 μg/mL) [%]
CC[C@]1(O)C[C@H]2CN(CCc3c([nH]c4ccccc34)[C@@](C(=O)OC)(c3cc4c(cc3OC)N(C=O)[C@H]3[C@@](O)(C(=O)OC)[C@H](OC(C)=O)[C@]5(CC)C=CCN6CC[C@]43[C@@H]65)C2)C1 [free VCR, vincristine sulfate]	31.4	52	53	no significant increase or even a slight decrease in Luc signal	1.38	
free Dar: CD38-targeting monoclonal antibody daratumumab (Dar)						~100
